ChEMBL document CHEMBL1250448, “Inhibitor hijacking of Akt activation” (Nat Chem Biol, 2009)
Active and inactive are the calls of the source. The rule behind the calls is not given here.

Key:
[1] = system: MiaPaCa2; assay: Induction of myristoylated AKT2 M225G and kinase dead D289A mutant Ser473 hyperphosphorylation expressed in MiaPaCa2 cells at 2.5 uM after 30 mins by immunoblotting; format: cell-based
[2] = system: PC-3; assay: Induction of myristoylated AKT2 M225G and kinase dead D289A mutant Ser473 hyperphosphorylation expressed in PC3 cells at 2.5 uM after 30 mins by immunoblotting; format: cell-based
[3] = system: RAC-alpha serine/threonine-protein kinase (Homo sapiens), P31749 [M227G]; assay: Induction of flag tagged AKT1 M227G Thr308 hyperphosphorylation expressed in HEK293 cells at 2.5 uM after 30 mins by immunoblotting; format: cell-based
Chain of RAC-alpha serine/threonine-protein kinase (Homo sapiens), P31749 [M227G] (P31749 whole entry M227G): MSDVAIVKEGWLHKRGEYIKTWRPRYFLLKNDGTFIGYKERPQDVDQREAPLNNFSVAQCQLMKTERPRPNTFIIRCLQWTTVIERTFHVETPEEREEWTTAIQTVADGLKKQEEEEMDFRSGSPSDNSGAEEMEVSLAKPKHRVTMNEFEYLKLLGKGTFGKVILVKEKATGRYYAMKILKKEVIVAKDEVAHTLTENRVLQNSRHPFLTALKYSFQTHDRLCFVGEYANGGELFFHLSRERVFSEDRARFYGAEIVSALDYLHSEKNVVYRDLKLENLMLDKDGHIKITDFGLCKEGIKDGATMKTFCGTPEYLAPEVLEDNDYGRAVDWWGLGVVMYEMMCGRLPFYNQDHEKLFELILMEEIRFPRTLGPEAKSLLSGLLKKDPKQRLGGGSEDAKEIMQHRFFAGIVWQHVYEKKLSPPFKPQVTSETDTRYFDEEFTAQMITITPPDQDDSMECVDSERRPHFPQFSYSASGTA

[4] = system: RAC-alpha serine/threonine-protein kinase (Homo sapiens), P31749 [M227G]; assay: Induction of mCherry tagged AKT1 M227G Ser473 hyperphosphorylation expressed in HEK293 cells at 2.5 uM after 30 mins by immunoblotting; format: cell-based
[5] = system: HEK-293T; assay: Induction myristoylated AKT2 M225G mutant Ser473 hyperphosphorylation expressed in HEK293T cells at 2.5 uM after 30 mins by immunoblotting; format: cell-based
[6] = system: HEK-293T; assay: Induction myristoylated AKT2 M225G mutant Thr308 hyperphosphorylation expressed in HEK293T cells at 2.5 uM after 30 mins pretreated with pan-PI3K inhibitor PIK90 for 10 mins before compound addition by immunoblotting; format: cell-based
[7] = system: HEK-293T; assay: Induction myristoylated AKT2 M225G mutant Ser473 hyperphosphorylation expressed in HEK293T cells at 2.5 uM after 30 mins pretreated with pan-PI3K inhibitor PIK90 for 10 mins before compound addition by immunoblotting; format: cell-based
[8] = system: HEK-293T; assay: Induction of myristoylated AKT3 M229G mutant Thr308 hyperphosphorylation expressed in HEK293T cells at 2.5 uM after 30 mins pretreated with pan-PI3K inhibitor PIK90 for 10 mins before compound addition by immunoblotting; format: cell-based
[9] = system: HEK-293T; assay: Induction of myristoylated AKT3 M229G mutant Ser473 hyperphosphorylation expressed in HEK293T cells at 2.5 uM after 30 mins pretreated with pan-PI3K inhibitor PIK90 for 10 mins before compound addition by immunoblotting; format: cell-based
[10] = system: RAC-alpha serine/threonine-protein kinase (Homo sapiens), P31749 [M227G,R25C]; assay: Induction of myristoylated AKT1 M227G and R25C mutant Ser473 hyperphosphorylation expressed in HEK293T cells at 2.5 uM after 30 mins by immunoblotting; format: cell-based; details: HEK-293T
Chain of RAC-alpha serine/threonine-protein kinase (Homo sapiens), P31749 [M227G,R25C] (P31749 whole entry R25C/M227G): as the sequence (P31749 whole entry M227G) above, with R25C counted along it

[11] = system: RAC-alpha serine/threonine-protein kinase (Homo sapiens), P31749 [M227G]; assay: Induction of membrane localized myristoylated AKT1 M227G mutant Ser473 hyperphosphorylation expressed in HEK293T cells at 2.5 uM after 30 mins by immunoblotting; format: cell-based; details: HEK-293T
[12] = system: RAC-alpha serine/threonine-protein kinase (Homo sapiens), P31749 [M227G]; assay: Induction of myristoylated AKT1 M227G mutant Ser473 hyperphosphorylation expressed in HEK293T cells at 2.5 uM after 30 mins pretreated with PDK1 inhibitor BX-795 for 10 mins before compound addition by immunoblotting; format: cell-based; details: HEK-293T
[13] = system: HEK-293T; assay: Induction of myristoylated AKT3 M229G mutant Thr308 hyperphosphorylation expressed in HEK293T cells at 2.5 uM after 30 mins pretreated with PDK1 inhibitor BX-795 for 10 mins before compound addition by immunoblotting; format: cell-based
[14] = system: HEK-293T; assay: Induction of myristoylated AKT3 M229G mutant Ser473 hyperphosphorylation expressed in HEK293T cells at 2.5 uM after 30 mins pretreated with PDK1 inhibitor BX-795 for 10 mins before compound addition by immunoblotting; format: cell-based
[15] = system: HEK-293T; assay: Induction myristoylated AKT2 M225G mutant Thr308 hyperphosphorylation expressed in HEK293T cells at 2.5 uM after 30 mins pretreated with mTOR kinase inhibitor PP242 for 10 mins before compound addition by immunoblotting; format: cell-based
[16] = system: RAC-alpha serine/threonine-protein kinase (Homo sapiens), P31749 [M227G]; assay: Induction of myristoylated AKT1 M227G mutant Ser473 hyperphosphorylation expressed in HEK293T cells at 2.5 uM after 30 mins pretreated with mTOR kinase inhibitor PP242 for 10 mins before compound addition by immunoblotting; format: cell-based; details: HEK-293T
[17] = system: HEK-293T; assay: Induction myristoylated AKT2 M225G mutant Ser473 hyperphosphorylation expressed in HEK293T cells at 2.5 uM after 30 mins pretreated with mTOR kinase inhibitor PP242 for 10 mins before compound addition by immunoblotting; format: cell-based
[18] = system: HEK-293T; assay: Induction of myristoylated AKT3 M229G mutant Ser473 hyperphosphorylation expressed in HEK293T cells at 2.5 uM after 30 mins pretreated with mTOR kinase inhibitor PP242 for 10 mins before compound addition by immunoblotting; format: cell-based
[19] = system: RAC-alpha serine/threonine-protein kinase (Homo sapiens), P31749 [M227G,D292A]; assay: Induction of nonmyristoylated AKT1 M227G and kinase dead D292A mutant Thr308 hyperphosphorylation expressed in HEK293T cells at 2.5 uM after 30 mins by immunoblotting; format: cell-based; details: HEK-293T
Chain of RAC-alpha serine/threonine-protein kinase (Homo sapiens), P31749 [M227G,D292A] (P31749 whole entry M227G/D292A): as the sequence (P31749 whole entry M227G) above, with D292A counted along it

[20] = system: RAC-alpha serine/threonine-protein kinase (Homo sapiens), P31749 [M227G,D292A]; assay: Induction of myristoylated AKT1 M227G and kinase dead D292A mutant Thr308 hyperphosphorylation expressed in MiaPaCa2 cells at 2.5 uM after 30 mins by immunoblotting; format: cell-based
[21] = system: MCF7; assay: Induction of myristoylated AKT2 M225G mutant Thr308 hyperphosphorylation expressed in MCF7 cells at 2.5 uM after 30 mins by immunoblotting; format: cell-based
[22] = system: RAC-alpha serine/threonine-protein kinase (Homo sapiens), P31749 [M227G]; assay: Induction of myristoylated AKT1 M227G Thr308 hyperphosphorylation expressed in MiaPaCa2 cells at 2.5 uM after 30 mins by immunoblotting; format: cell-based
[23] = system: RAC-alpha serine/threonine-protein kinase (Homo sapiens), P31749 [M227G]; assay: Induction of myristoylated AKT1 M227G mutant Thr308 hyperphosphorylation expressed in HEK293 cells after 30 mins by immunoblotting; details: HEK-293
[24] = system: RAC-alpha serine/threonine-protein kinase (Homo sapiens), P31749 [M227G]; assay: Induction of myristoylated AKT1 M227G mutant Ser473 hyperphosphorylation expressed in HEK293 cells after 30 mins by immunoblotting; details: HEK-293
[25] = system: RAC-alpha serine/threonine-protein kinase (Homo sapiens), P31749 [M227G]; assay: Induction of myristoylated AKT1 M227G mutant Thr308 hyperphosphorylation expressed in HEK293 cells at 2.5 uM after 30 mins by immunoblotting; details: HEK-293
[26] = molecular target: RAC-alpha serine/threonine-protein kinase (Homo sapiens, UniProt P31749); assay: Induction of flag-tagged wild type AKT1 Ser473 hyperphosphorylation expressed in HEK293 cells coexpressing HA-tagged AKT1 M227G after 30 mins by immunoblotting
Chain of RAC-alpha serine/threonine-protein kinase (P31749 whole entry): as the sequence (P31749 whole entry M227G) above, with G227M counted along it

[27] = system: RAC-alpha serine/threonine-protein kinase (Homo sapiens), P31749 [M227G]; assay: Induction of AKT1 M227G Ser473 hyperphosphorylation expressed in HEK293 cells at 2.5 uM after 30 mins pretreated with allosteric AKT inhibitor Akti-1,2 10 mins before compound addition by immunoblotting
[28] = molecular target: Ribosomal protein S6 kinase beta-1 (Homo sapiens, UniProt P23443); assay: Inhibition of S6K1
Chain of Ribosomal protein S6 kinase beta-1 (P23443 whole entry): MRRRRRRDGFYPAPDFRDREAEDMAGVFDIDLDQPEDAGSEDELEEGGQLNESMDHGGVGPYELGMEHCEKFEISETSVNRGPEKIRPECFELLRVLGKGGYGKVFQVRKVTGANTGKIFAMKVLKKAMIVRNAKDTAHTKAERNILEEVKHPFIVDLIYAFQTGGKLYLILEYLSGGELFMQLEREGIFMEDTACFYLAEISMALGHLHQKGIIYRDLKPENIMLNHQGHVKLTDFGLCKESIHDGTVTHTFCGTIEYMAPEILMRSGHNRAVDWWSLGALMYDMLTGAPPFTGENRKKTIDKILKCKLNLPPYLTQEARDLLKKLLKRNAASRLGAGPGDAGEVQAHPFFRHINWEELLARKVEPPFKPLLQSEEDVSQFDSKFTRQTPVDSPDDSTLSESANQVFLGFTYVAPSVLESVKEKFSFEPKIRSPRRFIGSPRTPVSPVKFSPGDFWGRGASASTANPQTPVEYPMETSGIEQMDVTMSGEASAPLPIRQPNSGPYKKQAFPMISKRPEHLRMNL

[29] = molecular target: RAC-alpha serine/threonine-protein kinase (Rattus norvegicus) (UniProt P47196); assay: Induction AKT1 Thr308 hyperphosphorylation in insulin-induced rat L6 cells after 20 mins before insulin stimulation by immunoblotting; format: cell-based
Chain of RAC-alpha serine/threonine-protein kinase (Rattus norvegicus) (P47196 whole entry): as the sequence (P31749 whole entry M227G) above, with S2N, D46E, A50S, K112R, E117T, S137A, G227M, K389T, G410N, H415D counted along it

`CCCc1cc(-c2cncc(OC[C@@H](N)Cc3c[nH]c4ccccc34)c2)cc2c(C)n[nH]c12` was tested, and the Activity [1] was “Active”, the Activity [2] was “Active” and the Activity [3] was “Active”. For the same molecule, the Activity [4] was “Active”, the Activity [5] was “Active” and the Activity [6] was “inactive”. For the same molecule, the Activity [7] was “inactive”, the Activity [8] was “inactive” and the Activity [9] was “inactive”. For the same molecule, the Activity [10] was “inactive”, the Activity [11] was “Active” and the Activity [12] was “inactive”. The Activity [13] was “inactive”, the Activity [14] was “inactive” and the Activity [15] was “Active”. For the same molecule, the Activity [16] was “inactive”, the Activity [17] was “inactive” and the Activity [18] was “inactive”. For the same molecule, the Activity [19] was “Active”, the Activity [20] was “Active” and the Activity [21] was “Active”. For the same molecule, the Activity [22] was “Active”, the Activity [23] was “Dose-dependent effect” and the Activity [24] was “Dose-dependent effect”. For the same molecule, the Activity [25] was “Active”, the Activity [26] was “inactive” and the Activity [27] was “inactive”.
For `COc1ccccc1N1CCN(c2ncnc3[nH]nc(Br)c23)CC1`, the IC50 [28] was 9.1 nM and the Activity [29] was “inactive”.
